PubChem BioAssay AID248 (DTP/NCI, 2004)
Values joined by “and” are separate entries in the source; they are usually repeats but may differ in a detail not shown here. Equal values may be shown once. Inconclusive results and toxic doses are left out.

Test system: L1210 leukemia ip in BDF1 mice, survival T/C
Experiment: NCI In Vivo Anticancer Drug Screen. Data for tumor model L1210 Leukemia (intraperitoneal) in B6D2F1 (BDF1) mice
Details: endpoint: mean survival time, higher = longer survival
Method in brief: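 Transplanted-tumor mice were given test agent; controls received vehicle only. Survival readings from the two groups were divided (treated over control).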

[1] = dose: 100.0 mg/kg/injection, schedule: Q04DX003 (ip), vehicle: Klucel (hydroxypropylcellulose) (HPC)
[2] = dose: 200.0 mg/kg/injection, schedule: Q04DX003 (ip), vehicle: Klucel (hydroxypropylcellulose) (HPC)
[3] = dose: 400.0 mg/kg/injection, schedule: Q04DX003 (ip), vehicle: Klucel (hydroxypropylcellulose) (HPC)
[4] = dose: 100.0 mg/kg/injection, schedule: Q04DX003 (ip), vehicle: saline
[5] = dose: 200.0 mg/kg/injection, schedule: Q04DX003 (ip), vehicle: saline
[6] = dose: 100.0 mg/kg/injection, schedule: Q04DX002 (ip), vehicle: Klucel (hydroxypropylcellulose) (HPC)
[7] = dose: 200.0 mg/kg/injection, schedule: Q04DX002 (ip), vehicle: Klucel (hydroxypropylcellulose) (HPC)
[8] = dose: 50.0 mg/kg/injection, schedule: Q01DX009 (ip), vehicle: saline with Tween-80
[9] = dose: 100.0 mg/kg/injection, schedule: Q01DX001 (ip), vehicle: saline
[10] = dose: 200.0 mg/kg/injection, schedule: Q01DX001 (ip), vehicle: saline
[11] = dose: 400.0 mg/kg/injection, schedule: Q01DX001 (ip), vehicle: saline
[12] = dose: 50.0 mg/kg/injection, schedule: Q01DX001 (ip), vehicle: saline

`CN(C)c1ccc(C(C#N)OC(=O)c2ccccc2)cc1` (centres undefined) was tested, and the T/C (dose: 100.0 mg/kg/injection, schedule: Q01DX001 (ip), vehicle: carboxymethylcellulose (CMC)) was 89 % of control, the T/C (dose: 100.0 mg/kg/injection, schedule: Q01DX009 (ip), vehicle: carboxymethylcellulose (CMC)) was 93 % of control and the T/C (dose: 100.0 mg/kg/injection, schedule: Q04DX002 (ip), vehicle: carboxymethylcellulose (CMC)) was 97 % of control. For the same molecule, the T/C (dose: 100.0 mg/kg/injection, schedule: Q04DX003 (ip), vehicle: carboxymethylcellulose (CMC)) was 100 % of control, the T/C (dose: 200.0 mg/kg/injection, schedule: Q01DX001 (ip), vehicle: carboxymethylcellulose (CMC)) was 94 % of control and the T/C (dose: 200.0 mg/kg/injection, schedule: Q01DX009 (ip), vehicle: carboxymethylcellulose (CMC)) was 98 % of control and 90 % of control. For the same molecule, the T/C (dose: 200.0 mg/kg/injection, schedule: Q04DX002 (ip), vehicle: carboxymethylcellulose (CMC)) was 97 % of control, the T/C (dose: 200.0 mg/kg/injection, schedule: Q04DX003 (ip), vehicle: carboxymethylcellulose (CMC)) was 89 % of control and the T/C (dose: 400.0 mg/kg/injection, schedule: Q01DX001 (ip), vehicle: carboxymethylcellulose (CMC)) was 91 % of control. The T/C (dose: 400.0 mg/kg/injection, schedule: Q01DX009 (ip), vehicle: carboxymethylcellulose (CMC)) was 98 % of control and 86 % of control, the T/C (dose: 400.0 mg/kg/injection, schedule: Q04DX002 (ip), vehicle: carboxymethylcellulose (CMC)) was 94 % of control and the T/C (dose: 400.0 mg/kg/injection, schedule: Q04DX003 (ip), vehicle: carboxymethylcellulose (CMC)) was 94 % of control.

With `CCOC(=O)c1cnc2onc(C)c2c1Nc1cccc(C(F)(F)F)c1` the T/C [1] was 90 % of control, the T/C [2] was 97 % of control and the T/C [3] was 101 % of control.

For `CC(=O)N1CCOCC1`, the T/C [4] was 93 % of control, the T/C [5] was 98 % of control and the T/C (dose: 400.0 mg/kg/injection, schedule: Q04DX003 (ip), vehicle: saline) was 102 % of control.

`CCn1cnc2cc(N=Cc3ccc(N(CCCl)CCCl)cc3Cl)ccc21` was tested, and the T/C [6] was 117 % of control, the T/C [7] was 102 % of control and the T/C (dose: 400.0 mg/kg/injection, schedule: Q04DX002 (ip), vehicle: Klucel (hydroxypropylcellulose) (HPC)) was 98 % of control.

`CC(CCC(=O)O)(NC(=O)c1ccc(NCc2ccc3nc(N)nc(N)c3c2)cc1)C(=O)O` (centres undefined) was tested, and the T/C (dose: 0.5 mg/kg/injection, schedule: Q01DX009 (ip), vehicle: saline) was 150 % of control, the T/C (dose: 1.0 mg/kg/injection, schedule: Q01DX009 (ip), vehicle: saline) was 163 % of control and 176 % of control and the T/C (dose: 4.0 mg/kg/injection, schedule: Q01DX009 (ip), vehicle: saline) was 163 % of control. For the same molecule, the T/C (dose: 8.0 mg/kg/injection, schedule: Q01DX009 (ip), vehicle: saline) was 112 % of control, the T/C (dose: 8.0 mg/kg/injection, schedule: Q04DX003 (ip), vehicle: saline) was 115 % of control and the T/C (dose: 16.0 mg/kg/injection, schedule: Q01DX009 (ip), vehicle: saline) was 102 % of control. The T/C (dose: 16.0 mg/kg/injection, schedule: Q04DX003 (ip), vehicle: saline) was 123 % of control, the T/C (dose: 64.0 mg/kg/injection, schedule: Q04DX003 (ip), vehicle: saline) was 115 % of control and the T/C (dose: 128.0 mg/kg/injection, schedule: Q04DX003 (ip), vehicle: saline) was 99 % of control.

In the case of `CC(=O)Cc1cc(C)nc(/N=C(\N)Nc2ccccc2)n1`, the T/C [6] was 93 % of control and the T/C [7] was 104 % of control.

`CCOC(=O)c1[nH]c(-c2ccccc2)c(C=O)c1-c1ccccc1` was tested, and the T/C (dose: 100.0 mg/kg/injection, schedule: Q01DX001 (ip), vehicle: Klucel (hydroxypropylcellulose) (HPC)) was 100 % of control, the T/C (dose: 200.0 mg/kg/injection, schedule: Q01DX001 (ip), vehicle: Klucel (hydroxypropylcellulose) (HPC)) was 100 % of control and the T/C (dose: 400.0 mg/kg/injection, schedule: Q01DX001 (ip), vehicle: Klucel (hydroxypropylcellulose) (HPC)) was 100 % of control.

`O=S1(=O)Cc2ccccc2-c2ccccc2C1` was tested, and the T/C (dose: 100.0 mg/kg/injection, schedule: Q04DX002 (ip), vehicle: gum acacia) was 103 % of control, the T/C (dose: 200.0 mg/kg/injection, schedule: Q04DX002 (ip), vehicle: gum acacia) was 103 % of control and the T/C (dose: 400.0 mg/kg/injection, schedule: Q04DX002 (ip), vehicle: gum acacia) was 106 % of control.

In the case of `Cc1c(O)c([N+](=O)[O-])cc2c1OCOC2`, the T/C [1] was 96 % of control, the T/C [2] was 102 % of control and the T/C [3] was 93 % of control.

For `O=C(c1ccccc1)C(SC(=S)OCc1ccccc1)c1ccccc1` (centres undefined), the T/C (dose: 25.0 mg/kg/injection, schedule: Q01DX009 (ip), vehicle: saline with Tween-80) was 98 % of control, the T/C [8] was 100 % of control and the T/C (dose: 100.0 mg/kg/injection, schedule: Q01DX009 (ip), vehicle: saline with Tween-80) was 96 % of control.

In the case of `Cc1cc(C)c(O)c(C)c1.[Hg]`, the T/C (dose: 12.5 mg/kg/injection, schedule: Q01DX001 (ip), vehicle: Klucel (hydroxypropylcellulose) (HPC)) was 87 % of control.

In the case of `CC(=O)OCC1(C[N+](C)(C)C)CCC1`, the T/C [9] was 103 % of control, the T/C [4] was 95 % of control and the T/C [10] was 97 % of control. The T/C [5] was 94 % of control and the T/C [11] was 110 % of control.

With `CC1CN(Cc2ccc([N+](=O)[O-])cc2)CC(C)N1N` (centres undefined) the T/C (dose: 50.0 mg/kg/injection, schedule: Q01DX005 (ip), vehicle: saline with Tween-80) was 98 % of control and the T/C (dose: 100.0 mg/kg/injection, schedule: Q01DX005 (ip), vehicle: saline with Tween-80) was 103 % of control.

In the case of `NC(CCCc1ccccc1)C(=O)O` (centres undefined), the T/C (dose: 50.0 mg/kg/injection, schedule: Q04DX003 (ip), vehicle: Klucel (hydroxypropylcellulose) (HPC)) was 98 % of control, the T/C [1] was 96 % of control and the T/C [2] was 88 % of control. The T/C [3] was 94 % of control.

In the case of `CC(C)CNC(=O)Nc1ccc(Cl)c(Cl)c1`, the T/C [9] was 97 % of control, the T/C [10] was 95 % of control and the T/C [11] was 95 % of control.

For `Cc1ccc(NC(=S)NC(=O)c2cccc([N+](=O)[O-])c2)cc1C`, the T/C [8] was 97 % of control and 112 % of control, the T/C (dose: 100.0 mg/kg/injection, schedule: Q01DX001 (ip), vehicle: saline with Tween-80) was 92 % of control and the T/C (dose: 100.0 mg/kg/injection, schedule: Q04DX002 (ip), vehicle: alcohol) was 93 % of control and 103 % of control. The T/C (dose: 100.0 mg/kg/injection, schedule: Q04DX003 (ip), vehicle: saline with Tween-80) was 95 % of control, the T/C (dose: 200.0 mg/kg/injection, schedule: Q01DX001 (ip), vehicle: saline with Tween-80) was 101 % of control and the T/C (dose: 200.0 mg/kg/injection, schedule: Q04DX002 (ip), vehicle: alcohol) was 93 % of control and 103 % of control. The T/C (dose: 200.0 mg/kg/injection, schedule: Q04DX003 (ip), vehicle: saline with Tween-80) was 94 % of control, the T/C (dose: 400.0 mg/kg/injection, schedule: Q01DX001 (ip), vehicle: saline with Tween-80) was 98 % of control and the T/C (dose: 400.0 mg/kg/injection, schedule: Q04DX002 (ip), vehicle: alcohol) was 93 % of control and 98 % of control. For the same molecule, the T/C (dose: 400.0 mg/kg/injection, schedule: Q04DX003 (ip), vehicle: saline with Tween-80) was 106 % of control.

With `C1C[S+]2CCN1CC2` the T/C [12] was 95 % of control.

In the case of `CSc1nsc(N)n1`, the T/C (dose: 75.0 mg/kg/injection, schedule: Q01DX001 (ip), vehicle: other) was 102 % of control, the T/C [1] was 100 % of control and the T/C (dose: 150.0 mg/kg/injection, schedule: Q01DX001 (ip), vehicle: other) was 100 % of control. The T/C [2] was 100 % of control, the T/C (dose: 300.0 mg/kg/injection, schedule: Q01DX001 (ip), vehicle: other) was 103 % of control and the T/C [3] was 107 % of control.

`CCC(CC)C[N+](C)(C)C` was tested, and the T/C (dose: 75.0 mg/kg/injection, schedule: Q01DX001 (ip), vehicle: saline) was 95 % of control and the T/C (dose: 150.0 mg/kg/injection, schedule: Q01DX001 (ip), vehicle: saline) was 104 % of control.

In the case of `CC(=O)c1ccccc1C(C)c1ccc2cccc(F)c2c1` (centres undefined), the T/C (dose: 75.0 mg/kg/injection, schedule: Q01DX001 (ip), vehicle: Klucel (hydroxypropylcellulose) (HPC)) was 96 % of control, the T/C (dose: 150.0 mg/kg/injection, schedule: Q01DX001 (ip), vehicle: Klucel (hydroxypropylcellulose) (HPC)) was 100 % of control and the T/C (dose: 300.0 mg/kg/injection, schedule: Q01DX001 (ip), vehicle: Klucel (hydroxypropylcellulose) (HPC)) was 102 % of control.

In the case of `C[N+](C)(C)c1ccc(C(=O)[O-])cc1`, the T/C [12] was 97 % of control, the T/C [9] was 97 % of control and the T/C [10] was 97 % of control. The T/C [11] was 103 % of control.

`Nc1nc(N)c2nc(COc3ccc(C(=O)NC(CCC(=O)O)C(=O)O)cc3)cnc2n1` (centres undefined) was tested, and the T/C (dose: 0.5 mg/kg/injection, schedule: Q01DX009 (ip), vehicle: sodium bicarbonate) was 122 % of control, the T/C (dose: 0.8 mg/kg/injection, schedule: Q01DX009 (ip), vehicle: sodium bicarbonate) was 122 % of control and the T/C (dose: 2.5 mg/kg/injection, schedule: Q01DX009 (ip), vehicle: sodium bicarbonate) was 122 % of control. The T/C (dose: 5.0 mg/kg/injection, schedule: Q01DX009 (ip), vehicle: sodium bicarbonate) was 100 % of control and 90 % of control.
